Experiments:
[1] = molecular target: human vasopressin V1a receptor (Homo sapiens, UniProt P37288); assay: Vasopressin V1a receptor binding assay; details: selectivity quotient, human V1a vs human V1b
[2] = molecular target: T1, human vasopressin V1b receptor (Homo sapiens, UniProt P47901); assay: biochemical
T1 sequence (P47901 1-424): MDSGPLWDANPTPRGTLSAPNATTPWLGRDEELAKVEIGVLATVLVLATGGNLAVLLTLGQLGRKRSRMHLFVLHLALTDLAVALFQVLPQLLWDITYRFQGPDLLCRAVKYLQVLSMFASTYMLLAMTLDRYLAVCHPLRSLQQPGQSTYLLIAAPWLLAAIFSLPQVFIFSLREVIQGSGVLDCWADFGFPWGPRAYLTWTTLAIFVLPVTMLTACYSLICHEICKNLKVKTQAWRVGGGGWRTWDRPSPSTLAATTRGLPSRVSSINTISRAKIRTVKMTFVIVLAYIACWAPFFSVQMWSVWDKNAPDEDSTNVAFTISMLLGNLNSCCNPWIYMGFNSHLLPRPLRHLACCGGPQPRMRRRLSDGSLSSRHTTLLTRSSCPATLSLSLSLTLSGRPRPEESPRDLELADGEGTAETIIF

Sequence of human vasopressin V1a receptor (P37288 whole entry): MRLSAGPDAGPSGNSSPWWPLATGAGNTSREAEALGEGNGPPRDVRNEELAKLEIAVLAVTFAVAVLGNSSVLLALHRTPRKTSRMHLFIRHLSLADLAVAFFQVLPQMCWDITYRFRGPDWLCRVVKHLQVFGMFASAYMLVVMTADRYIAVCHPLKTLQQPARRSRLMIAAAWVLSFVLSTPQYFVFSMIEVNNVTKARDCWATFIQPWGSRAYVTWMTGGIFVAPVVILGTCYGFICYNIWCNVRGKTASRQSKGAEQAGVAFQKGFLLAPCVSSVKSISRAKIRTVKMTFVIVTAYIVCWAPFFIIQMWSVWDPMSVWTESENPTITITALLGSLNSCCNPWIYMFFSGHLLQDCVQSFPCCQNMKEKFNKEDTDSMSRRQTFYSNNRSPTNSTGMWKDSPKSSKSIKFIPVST

Row | Ki(h-V1a)/Ki(h-V1b) [1] | Ki [2] [nM] | SMILES
1 | +++ (>75) | – | COc1ccc(S(=O)(=O)N2C(=O)C(NC(=O)N3CCN(C4CCN(C5COC5)CC4)CC3)(c3cccnc3OC)c3cc(C#N)ccc32)c(OC)c1 (stereo not shown) [Example 15, N-(5-cyano-1-((2,4-dimethoxyphenyl)sulfonyl)-3-(2-methoxypyridin-3-yl)-2-oxoindolin-3-yl)-4-(1-(oxetan-3-yl)piperidin-4-yl)piperazine-1-carboxamide]
2 | ++ (25-75) | – | CCOc1ncccc1[C@]1(NC(=O)N2CCC(N3C[C@@H]4C[C@H]3CN4C3COC3)CC2)C(=O)N(S(=O)(=O)c2ccc(OC)cc2OC)c2ccc(C#N)cc21 [Example 17, N—((S)-5-cyano-1-((2,4-dimethoxyphenyl)sulfonyl)-3-(2-ethoxypyridin-3-yl)-2-oxoindolin-3-yl)-4-((1S,4S)-5-(oxetan-3-yl)-2,5-diazabicyclo[2.2.1]heptan-2-yl)piperidine-1-carboxamide]
3 | + (10-<25) | – | CCOc1ncccc1[C@]1(NC(=O)N2CCN(C3CCN(C4COC4)CC3)CC2)C(=O)N(S(=O)(=O)c2ccc(OC)c(C)c2C)c2ccc(C#N)cc21 [Example 18, (S)—N-(5-cyano-3-(2-ethoxypyridin-3-yl)-1-((4-methoxy-2,3-dimethylphenyl)sulfonyl)-2-oxoindolin-3-yl)-4-(1-(oxetan-3-yl)piperidin-4-yl)piperazine-1-carboxamide]
4 | +++ (>75) | 10 to 100 | CCOc1ncccc1[C@]1(NC(=O)N2CCN(C3CCN(CC4COC4)CC3)CC2)C(=O)N(S(=O)(=O)c2ccc(OC)cc2OC)c2ccc(C#N)cc21 [Example 19, (S)—N-(5-cyano-1-((2,4-dimethoxyphenyl)sulfonyl)-3-(2-ethoxypyridin-3-yl)-2-oxoindolin-3-yl)-4-(1-(oxetan-3-ylmethyl)piperidin-4-yl)piperazine-1-carboxamide]
5 | +++ (>75) | 10 to 100 | CCOc1ncccc1[C@]1(NC(=O)N2CCN(C3CCN(C4COC4)CC3)CC2)C(=O)N(S(=O)(=O)c2ccc(OC)cc2)c2ccc(C#N)cc21 [Example 24, N-[(3S)-5-cyano-3-(2-ethoxy-3-pyridyl)-1-(4-methoxyphenyl)sulfonyl-2-oxo-indolin-3-yl]-4-[1-(oxetan-3-yl)-4-piperidyl]piperazine-1-carboxamide]
6 | +++ (>75) | 1 to 10 | CCOc1ncccc1[C@]1(NC(=O)N2CCN(C3CCN(C4COC4)CC3)CC2)C(=O)N(S(=O)(=O)c2ccc(OC)cn2)c2ccc(C#N)cc21 [Example 25, N-[(3S)-5-cyano-3-(2-ethoxy-3-pyridyl)-1-[(5-methoxy-2-pyridyl)sulfonyl]-2-oxo-indolin-3-yl]-4-[1-(oxetan-3-yl)-4-piperidyl]piperazine-1-carboxamide]
7 | +++ (>75) | 1 to 10 | CCOc1ncccc1[C@]1(NC(=O)N2CCN(C3CCN(C4COC4)CC3)CC2)C(=O)N(S(=O)(=O)c2ccc(F)cc2OC)c2ccc(C#N)cc21 [Example 26, N-[(3S)-5-cyano-3-(2-ethoxy-3-pyridyl)-1-(4-fluoro-2-methoxy-phenyl)sulfonyl-2-oxo-indolin-3-yl]-4-[1-(oxetan-3-yl)-4-piperidyl]piperazine-1-carboxamide]
8 | +++ (>75) | < 1 | COc1ccc(S(=O)(=O)N2C(=O)[C@@](NC(=O)N3CCC(C4CCN(C5COC5)CC4)CC3)(c3cccnc3OC)c3cc(C#N)ccc32)c(OC)c1 [Example 27, N-[(3S)-5-cyano-1-(2,4-dimethoxyphenyl)sulfonyl-3-(2-methoxy-3-pyridyl)-2-oxo-indolin-3-yl]-4-[1-(oxetan-3-yl)-4-piperidyl]piperidine-1-carboxamide]
9 | +++ (>75) | 10 to 100 | CCOc1ncccc1[C@]1(NC(=O)N2CCN(C3CCN(C4COC4)CC3)CC2)C(=O)N(S(=O)(=O)c2ccc(F)cc2)c2ccc(C#N)cc21 [Example 28, N-[(3S)-5-cyano-3-(2-ethoxy-3-pyridyl)-1-(4-fluorophenyl)sulfonyl-2-oxo-indolin-3-yl]-4-[1-(oxetan-3-yl)-4-piperidyl]piperazine-1-carboxamide]
10 | + (10-<25) | 1 to 10 | COc1ccc(S(=O)(=O)N2C(=O)[C@@](NC(=O)N3CCN(C4CCN(C5COC5)CC4)CC3)(c3cccnc3OC)c3cc(C#N)ccc32)nc1 [Example 29, N-[(3S)-5-cyano-3-(2-methoxy-3-pyridyl)-1-[(5-methoxy-2-pyridyl)sulfonyl]-2-oxo-indolin-3-yl]-4-[1-(oxetan-3-yl)-4-piperidyl]piperazine-1-carboxamide]
11 | +++ (>75) | 1 to 10 | COc1cc(F)ccc1S(=O)(=O)N1C(=O)[C@@](NC(=O)N2CCN(C3CCN(C4COC4)CC3)CC2)(c2cccnc2OC)c2cc(C#N)ccc21 [Example 30, N-[(3S)-5-cyano-1-(4-fluoro-2-methoxy-phenyl)sulfonyl-3-(2-methoxy-3-pyridyl)-2-oxo-indolin-3-yl]-4-[1-(oxetan-3-yl)-4-piperidyl]piperazine-1-carboxamide]
12 | – | < 1 | COc1ccc(S(=O)(=O)N2C(=O)[C@@](NC(=O)N3CCC(C4CCN(C5COC5)CC4)CC3)(c3cccnc3OC)c3cc(C#N)ccc32)nc1 [Example 39, N-[(3S)-5-cyano-3-(2-methoxy-3-pyridyl)-1-[(5-methoxy-2-pyridyl)sulfonyl]-2-oxo-indolin-3-yl]-4-[1-(oxetan-3-yl)-4-piperidyl]piperidine-1-carboxamide]

The remaining lines, values behind:

Row | SMILES | Ki(h-V1a)/Ki(h-V1b) [1] | Ki [2] [nM]
13 | CCOc1ncccc1[C@]1(NC(=O)N2CCN(C3CCN(C4COC4)CC3)CC2)C(=O)N(S(=O)(=O)c2ccc(OC)cc2OC)c2ccc(C#N)cc21 [Example 1, (S)—N-(5-cyano-1-((2,4-dimethoxyphenyl)sulfonyl)-3-(2-ethoxypyridin-3-yl)-2-oxoindolin-3-yl)-4-(1-(oxetan-3-yl)piperidin-4-yl)piperazine-1-carboxamide] | +++ (>75) | –
14 | CCOc1ncccc1[C@]1(NC(=O)N2CCN(C3CCN(C4COC4)CC3)CC2)C(=O)N(S(=O)(=O)c2ccc(OC)cc2F)c2ccc(C#N)cc21 [Example 6, (S)—N-(5-cyano-3-(2-ethoxypyridin-3-yl)-1-((2-fluoro-4-methoxyphenyl)sulfonyl)-2-oxoindolin-3-yl)-4-(1-(oxetan-3-yl)piperidin-4-yl)piperazine-1-carboxamide] | +++ (>75) | –
15 | CCOc1ncccc1[C@]1(NC(=O)N2CCN(C3CCN(C4COC4)CC3)CC2)C(=O)N(S(=O)(=O)c2ccc(OC)cc2OC)c2cc(F)c(C#N)cc21 [Example 7A, (S)—N-(5-cyano-1-((2,4-dimethoxyphenyl)sulfonyl)-3-(2-ethoxypyridin-3-yl)-6-fluoro-2-oxoindolin-3-yl)-4-(1-(oxetan-3-yl)piperidin-4-yl)piperazine-1-carboxamide] | +++ (>75) | < 1
16 | CCOc1ncccc1[C@]1(NC(=O)N2CCN(C3CCN(C4COC4)CC3)CC2)C(=O)N(S(=O)(=O)c2cc(F)c(OC)cc2OC)c2ccc(C#N)cc21 [Example 8, (S)—N-(5-cyano-3-(2-ethoxypyridin-3-yl)-1-((5-fluoro-2,4-dimethoxyphenyl)sulfonyl)-2-oxoindolin-3-yl)-4-(1-(oxetan-3-yl)piperidin-4-yl)piperazine-1-carboxamide] | +++ (>75) | –
17 | CCOc1ncccc1[C@]1(NC(=O)N2CCN(C3CCN(C4COC4)CC3)CC2)C(=O)N(S(=O)(=O)c2ccc(OC)cc2OC)c2cc(F)c(F)cc21 [Example 9, (S)—N-(1-((2,4-dimethoxyphenyl)sulfonyl)-3-(2-ethoxypyridin-3-yl)-5,6-difluoro-2-oxoindolin-3-yl)-4-(1-(oxetan-3-yl)piperidin-4-yl)piperazine-1-carboxamide] | +++ (>75) | –
18 | CCOc1ncccc1[C@]1(NC(=O)N2CCN(C3CCN(C4COC4)CC3)CC2)C(=O)N(S(=O)(=O)c2ccc(OC)cc2OC)c2ccc(Cl)cc21 [Example 10, (S)—N-(5-chloro-1-((2,4-dimethoxyphenyl)sulfonyl)-3-(2-ethoxypyridin-3-yl)-2-oxoindolin-3-yl)-4-(1-(oxetan-3-yl)piperidin-4-yl)piperazine-1-carboxamide] | +++ (>75) | –
19 | CCOc1ncccc1[C@]1(NC(=O)N2CCC(C3CCN(C4COC4)CC3)CC2)C(=O)N(S(=O)(=O)c2ccc(OC)cc2OC)c2ccc(C#N)cc21 [Example 11, (S)—N-(5-cyano-1-((2,4-dimethoxyphenyl)sulfonyl)-3-(2-ethoxypyridin-3-yl)-2-oxoindolin-3-yl)-1′-(oxetan-3-yl)-[4,4′-bipiperidine]-1-carboxamide] | +++ (>75) | < 1
20 | CCOc1ncccc1[C@]1(NC(=O)N2CCC(N3CCN(C4COC4)CC3)CC2)C(=O)N(S(=O)(=O)c2ccc(C#N)cc2)c2ccc(C#N)cc21 [Example 12, (S)—N-(5-cyano-1-((4-cyanophenyl)sulfonyl)-3-(2-ethoxypyridin-3-yl)-2-oxoindolin-3-yl)-4-(4-(oxetan-3-yl)piperazin-1-yl)piperidine-1-carboxamide] | ++ (25-75) | –
21 | CCOc1ncccc1[C@]1(NC(=O)N2CCC(N3CCN(C4COC4)CC3)CC2)C(=O)N(S(=O)(=O)c2ccc(OC)cc2)c2ccc(C#N)cc21 [Example 13, (S)—N-(5-cyano-3-(2-ethoxypyridin-3-yl)-1-((4-methoxyphenyl)sulfonyl)-2-oxoindolin-3-yl)-4-(4-(oxetan-3-yl)piperazin-1-yl)piperidine-1-carboxamide] | +++ (>75) | –
